Here are results for one substance from US11523995B2, “Compositions and methods for ablating niche cells in testis and other epithelial cells and methods relating thereto” (Duke University, priority 2017, dated 2022).

Entries after “also recorded” stand apart in the source; their conditions may differ.

In series [1] the test system is Sertoli cells from canine testis. Put plainly: Depletion of canine Sertoli cells in vitro (testis fragment culture). Format: cell-based. Particulars: cultured 3 days. The protocol:
Fragments of the mouse testis were incubated with 0.02% BC for 10 min. After washing several times with PBS, tissues were placed atop 1.5% agarose blocks (214530; Difco), prepared and placed in 6 well tissue culture plates (353046; Falcon) with ˜500 μl of 10% FBS+DMEM (11995-065; Gibco) to reach halfway up the side of the block. After culture, tissues were washed in PBS and fixed for immunofluorescence. The dog testis tissues were incubated with 0.02% or 0.03% BC for 10 min and cultured with 10% KnockOut Serum Replacement (KSR) (Invitrogen; 10828-028)+DMEM (Yokonishi, T., et al. Methods in Molecular Biology 927: 479-488 (2013)). The culture incubator was supplied with 5% (vol/vol) carbon dioxide in air and maintained at 37° C.
(§1) Adult mouse testis and canine testis tissues were fixed in 4% (wt/vol) paraformaldehyde in PBS at 4° C. overnight and cryoembedded in OCT compound (Sakura Finetek). Samples were cut into 14-μm-thick cryosections. Incubation with primary antibodies was performed overnight at 4° C., followed by 2 washes, and incubation with secondary antibodies for 1 h at room temperature. Nuclei were counterstained with Hoechst 33342 dye. Samples were mounted on glass slides and imaged with a confocal laser microscope (Zeiss 780).
We used the same procedure as described for the mouse testis to test whether BC could eliminate Sertoli cells from canine testis. Six to 8 […] canine testis tissues were cut into fragments and incubated with 0.02% or 0.03% BC for 10 min (or PBS as a control), washed, and cultured for 3 days (FIG. 4). At the end of that time, the testis was fixed and stained for immunofluorescence analysis using antibodies against SOX9 and the germ cell marker, MVH (mouse vasa homolog). In control tissue, both Sertoli cells and germ cells were detected in seminiferous tubules. […] In control canine testis, GATA-4 positive PMCs and Leydig cells were detected between tubules.

The test system of the next series is Sertoli cells. Put plainly: Adult Sertoli cell depletion in vivo (injection into rete testis). Set-up: species or system mouse. The protocol:
(§2) Host mice were anesthetized. A glass needle was back-loaded with the drug and 0.02% bromophenol blue to track the success of the injection and extent of delivery into the tissue. The mixture was injected into the rete-testis.
as §1
We injected a solution of 0.02% BC (or PBS as a control) into the rete testis of anesthetized adult male mice to test the effects of the drug on adult Sertoli cells. To detect Sertoli cells easily, we used a Sox9-ECFP transgenic mouse (FIG. 5). […] However, four days after treatment, Sertoli cells had disappeared from approximately 30-40% of seminiferous tubules.

The next series has as its system SSCs. Put plainly: SSC kinetics after BC treatment in DND1-EGFP mouse. It is filed as in vivo. The protocol: as §2
We used a DND1 (dead end homolog 1)-EGFP mouse to investigate SSC kinetics after BC treatment. In this transgenic mouse, all SSCs including undifferentiated SSCs and differentiating spermatogonia express EGFP. 0.02% BC (or PBS control) was injected into seminiferous tubules of adult testis. […] Although Sertoli cells and germ cells were lost in drug affected tubules, cord structure, Leydig cells, and PMCs were normal.

The test system of a further series is host spermatogenesis. Put plainly: Donor Sertoli cell transplantation into testis 4 days post BC treatment. The note with it: 0.02% BC 4 days before Sox9-ECFP Sertoli cell transplantation; 8 weeks after transplantation. It is filed as in vivo, mouse. The protocol: On the day of transplantation, FACS analysis was used to isolate donor Sertoli cells. Testes of Sox9-CFP mouse pups were dissected. Testicular cells were enzymatically dissociated using 1 mg/ml collagenase type IV for 15 minutes followed by incubation in 0.25% trypsin and 1 mM EDTA for 10 min at 37° C. The reaction was stopped by addition of serum and cells were washed twice. The cell suspension was filtered through a 40 μm nylon mesh and resuspended in 10% FBS+DMEM.
10-15 μl of approximately 1×10^6/ml isolated Sertoli cells or 1×10^8/ml (testicular cells) were injected through the rete testis into the seminiferous tubules of a host mouse on day 4 or day 7 after ablation treatment. A glass needle was back-loaded with the cell suspension and 0.04% Trypan blue to track the efficiency of the injection.
To determine whether donor Sertoli cells can efficiently engraft drug-depleted cords, we transplanted Sertoli cells from 6.5-10.5 dpp Sox9-ECFP mouse pups. The host mouse was prepared by injection of the 0.02% BC solution 4 days prior to transplantation. Cells from a neonatal Sox9-ECFP donor testis were dissociated by enzymatic treatment, Sertoli cells were isolated by FACS, and injected into host seminiferous tubules through the rete testis (FIG. 6). […] Full spermatogenesis was detected 8 weeks after transplantation in 2 of 4 engrafted testes.

The subject of series [2] is bladder epithelial cells, urothelium. Put plainly: BC injection into bladder in vivo. Set-up: species or system mouse. The protocol:
2 months old female mice were anesthetized using Avertin or Isoflurane as anesthetic. Using forceps, the top of the urethral orifice was pinched and pulled up without obstructing the urethra at a ˜45° angle. The catheter tubing end was attachded to a 1 mL syringe, and the tip of the tubing rubbed in medicine mineral jelly. The jelly-topped catheter was carefully inserted into the urethra at a ˜45° angle. The syringe was detached from the catheter, and the mouse's stomach was palpated to produce urine. Using another syringe and catheter, the urine that is produced was aspirated, and emptied into other towel. 20 uL of the BC solution (or PBS) was pipetted directly into the catheter using a pipet tip. It was ensured that the pipet tip contacted the catheter, then the cylinder was fully depressed for ˜3 seconds. The liquid was pushed into the bladder by injecting ˜20 uL of air using a syringe. The catheter was removed and the mouse put back into its cage.
We injected a solution of 0.004%, 0.06% BC into the bladder of anesthetized adult female mice to test the effects of the drug on bladder epithelial cells, urothelium. […] However, six days after treatment, urothelium had disappeared from approximately 80% of 0.06% BC treated bladder, some mesenchymal cells were found on straining with antibodies against PDGFRβ and NG2.

For another series, the system named is enteric nerve plexus. Particulars: GI tract treated in vivo; cited from earlier work.

With benzalkonium chloride [BC], in series [1] (0.02% BC 10 min), the “Sertoli cell depletion (SOX9)” value is recorded as “Sertoli cells were depleted, particularly from the peripheral regions of the tissue”. In series [1] (0.03% BC 10 min), the “SSC survival in Sertoli-depleted seminiferous tubules” value is “some SSCs survived”; the “Sertoli cell depletion (SOX9)” value was “all Sertoli cells were absent”; the “effect on PMCs, SSCs and Leydig cells” value was “caused some PMC depletion, and reduced the number of SSCs and Leydig cells”. Further, in the series with Sertoli cells (0.02% BC into rete testis, day 3), the “Sertoli cell depletion based on SOX9 expression” value is “Sertoli cell depletion was not detected”. Also, the “seminiferous tubules from which Sertoli cells had disappeared” value with Sertoli cells (0.02% BC into rete testis, four days after treatment) is 30-40%. The “Caspase3 positive Sertoli cells (apoptosis)” value with Sertoli cells (0.02% BC, 4 days after treatment) was “did not detect Caspase3 positive Sertoli cells”. In the series on Sertoli cells (0.02% BC, day 4), the “Leydig cells and endothelial cells (3βHSD, PECAM1)” value was “not obviously affected”; the “PMCs (SMA staining)” value is “PMCs were intact”; the “SSCs in drug affected tubules (STRA8, Hu C/D, c-KIT)” value was “some SSCs were found along the basal lamina”; the “basic tubular structure (anti-Laminin staining)” value was “basic tubular structure was also intact”. Moreover, in the series on Sertoli cells (0.02% BC, day 4), the “macrophage invasion and proliferation (F4/80)” value was “many macrophages positive for F4/80 surrounded the affected tubules and some had invaded inside”. Further, in the series on Sertoli cells (4 days after 0.02% BC treatment), the “Sertoli cell elimination (summary)” value was “Sertoli cells were eliminated”. The “system-wide / side effects after drug injection into rete testis” value in the series on Sertoli cells (mouse, BC injection) is given as “no apparent system-wide effects; also recorded: no discernable side effects”. Also, the “SSC loss (DND1-EGFP)” value in the series with SSCs (0.02% BC into seminiferous tubules, three days after Sertoli cells were depleted (7 days post BC)) is given as “SSCs had also disappeared”. In addition, the “cord structure, Leydig cells and PMCs in drug affected tubules” value in the series with SSCs (0.02% BC, 7 days post treatment) is listed as “normal”. For the same substance, the “engrafted testes with full spermatogenesis” value in the series with host spermatogenesis is listed as 2 of 4. Besides, in series [2] (0.004% BC), the inflammation in bladder result is recorded as “did not cause inflammation”. Also, in series [2] (0.004% BC, day 6), the urothelium depletion result was “urothelium depletion was not detected”. Moreover, in series [2] (0.03% BC (so in the source)), the “macrophage invasion in bladder” value was “Macrophage invasion were observed”. Also, in series [2] (0.06% BC, day 6), the “urothelium detachment in the lumen of the bladder” value is “urothelium detachment was observed”. In addition, the “part of treated bladder from which urothelium had disappeared” value in series [2] (0.06% BC, six days after treatment) is “approximately 80%”. Further, the “removal of enteric nerve plexus” value in the series on enteric nerve plexus is “remove the mouse and rat enteric nerve plexus”.
